Experimental data reported in patent US10668127B2, “Method and composition for synchronizing time of insemination” (UNITED-AH II, LLC, priority 2009, dated 2020).

Assays:
sows [1] = test: Ovulation detection by transrectal ultrasonography (Examples 1-7); type: in vivo, swine; settings: for OV48 (%): 48 h after treatment, OG, LS means
Description: Approximately 120 parity one to seven sows (30 sows within each treatment group) were used to obtain ovulation and reproductive tract data. All sows were of the same genotype (PIC C22). Following 16 to 24 days of lactation, sows were blocked by length of lactation and parity and randomly assigned to one of four treatments: 1) a placebo group, receiving a placebo gel at 96±2 hours post-weaning and a single AI 24 hours later, 2) triptorelin gel at 96±2 hours post-weaning and AI 18 to 20 hours later. 3) triptorelin gel at 96±2 hours post-weaning and AI 24 to 26 hours later, and 4) triptorelin gel at 96±2 hours post-weaning and AI 30 to 32 hours later. The placebo formulation was identical to the active formulation but without the hormone being present. All treatments were deposited into the anterior vagina within 2 cm of the cervix. Follicular development and ovulation was monitored via real time ultrasound at 24, 32, 40, 48, and 56 hours after treatment. Thirty (30) days after insemination, all sows were slaughtered and reproductive tracts obtained. Pregnancy rates and embryo survival were determined. Triptorelin was administered at 96 hours (±2 hr) post-weaning as a single 2 mL dose deposited approximately 1-2 cm posterior to the cervix with a modified artificial insemination catheter. Weaning of sows occurred between 10 a.m. and noon on Day (O). The timing of the insemination for each group of sows was given as directed in the protocol. Those sows scheduled to be inseminated 18 hours following administration of triptorelin were generally inseminated between 6:00 a.m. and 8:00 a.m. the following day, those sows scheduled to be inseminated 24 hours following administration of triptorelin were generally inseminated between noon and 2:00 p.m. the following day and those sows scheduled to be inseminated 30 hours following administration of triptorelin were generally inseminated between 6:00 p.m. and 8:00 p.m. the following day. The single insemination for each sow was performed as they were normally done at the farm. […] Ultrasonography was performed at 24 hr (±1.5 hour) after treatment on Day 5 and again at 8:00 p.m. (±1.5 hour) on Day 5. On Day 6 transrectal ultrasonography was performed at 4:00 a.m. (±1 hour), noon (±1 hr) and 8:00 p.m. (±1 hr) until ovulation was complete or until the 8:00 p.m. ultrasonography on Day 6 (the 56 hour mark from the animals treated at 96 hours post-weaning) whichever came first. An Aloka 500 ultrasound machine was used for this purpose, with a 7.5 MHz linear array transducer attached to a fixed-angle PVC stabilizing rod to facilitate insertion into the rectum. The transducer and PVC rod were coated with a gynecological lubricant and gently inserted into the rectum until the ovaries could be visualized, one at a time. The diameters of the three largest follicles were to be recorded (to the nearest 0.1 mm) at each scanning. A sow was declared to have ovulated when the number of large follicles 6.5 mm) fell to less than 3. […] For all analyses, the models contained the fixed effects of treatment (placebo controls inseminated 24 hours after treatment, triptorelin treated sows inseminated 18 hours after treatment, triptorelin treated sows inseminated 24 hours after treatment and triptorelin treated sows inseminated 30 hours after treatment) and replicate. The records for sow parity and lactation length were included as covariates. First order interaction of treatment and replicate was tested and removed when non-significant. […]

sows [2] = test: Pregnancy rate and litter size at slaughter 30 days after insemination (Examples 1-7); type: in vivo, swine; settings: OG, LS means; for Pregnant (%): pregnant at slaughter of all sows allotted
Description: Approximately 120 parity one to seven sows (30 sows within each treatment group) were used to obtain ovulation and reproductive tract data. All sows were of the same genotype (PIC C22). Following 16 to 24 days of lactation, sows were blocked by length of lactation and parity and randomly assigned to one of four treatments: 1) a placebo group, receiving a placebo gel at 96±2 hours post-weaning and a single AI 24 hours later, 2) triptorelin gel at 96±2 hours post-weaning and AI 18 to 20 hours later. 3) triptorelin gel at 96±2 hours post-weaning and AI 24 to 26 hours later, and 4) triptorelin gel at 96±2 hours post-weaning and AI 30 to 32 hours later. The placebo formulation was identical to the active formulation but without the hormone being present. All treatments were deposited into the anterior vagina within 2 cm of the cervix. Follicular development and ovulation was monitored via real time ultrasound at 24, 32, 40, 48, and 56 hours after treatment. Thirty (30) days after insemination, all sows were slaughtered and reproductive tracts obtained. Pregnancy rates and embryo survival were determined. Triptorelin was administered at 96 hours (±2 hr) post-weaning as a single 2 mL dose deposited approximately 1-2 cm posterior to the cervix with a modified artificial insemination catheter. Weaning of sows occurred between 10 a.m. and noon on Day (O). The timing of the insemination for each group of sows was given as directed in the protocol. Those sows scheduled to be inseminated 18 hours following administration of triptorelin were generally inseminated between 6:00 a.m. and 8:00 a.m. the following day, those sows scheduled to be inseminated 24 hours following administration of triptorelin were generally inseminated between noon and 2:00 p.m. the following day and those sows scheduled to be inseminated 30 hours following administration of triptorelin were generally inseminated between 6:00 p.m. and 8:00 p.m. the following day. The single insemination for each sow was performed as they were normally done at the farm. […] There was a tendency (p=0.09) for triptorelin treated sows inseminated at 18 hours (12.4 fetuses) and at 24 hours (11.8 fetuses) post treatment to have a higher number of healthy fetuses than triptorelin treated sows inseminated at 30 hours (8.6) post treatment and for vehicle treated sows inseminated at 24 hours (8.6) following treatment. […] For all analyses, the models contained the fixed effects of treatment (placebo controls inseminated 24 hours after treatment, triptorelin treated sows inseminated 18 hours after treatment, triptorelin treated sows inseminated 24 hours after treatment and triptorelin treated sows inseminated 30 hours after treatment) and replicate. The records for sow parity and lactation length were included as covariates. First order interaction of treatment and replicate was tested and removed when non-significant. Differences between treatments were tested on least squares means estimates using the T test at P<0.05.

Structure (SMILES): CC(C)C[C@H](NC(=O)[C@@H](Cc1c[nH]c2ccccc12)NC(=O)[C@H](Cc1ccc(O)cc1)NC(=O)[C@H](CO)NC(=O)[C@H](Cc1c[nH]c2ccccc12)NC(=O)[C@H](Cc1c[nH]cn1)NC(=O)[C@@H]1CCC(=O)N1)C(=O)N[C@@H](CCCNC(=N)N)C(=O)N1CCC[C@H]1C(=O)NCC(N)=O [triptorelin, pGlu-His-Trp-Ser-Tyr-D-Trp-Leu-Arg-Pro-Gly-NH2]
- sows ovulating during their most synchronous 24 hr period (sows [1]; 120 to 144 hr after weaning, triptorelin treated sows): 70-77%
- OV48 (%) (sows [1]; AI 18 h): 74.0%
- OV48 (%) (sows [1]; AI 24 h): 77.0%
- OV48 (%) (sows [1]; AI 30 h): 76.8%
- percentage of sows ovulating by 56 hours after treatment (sows [1]; average of triptorelin treated sows): 80.4%
- Number of Healthy Fetuses (sows [2]; AI 18 h): 12.4
- Number of Healthy Fetuses (sows [2]; AI 24 h): 11.8
- Number of Healthy Fetuses (sows [2]; AI 30 h): 8.6
- Pregnant (%) (sows [2]; AI 18 h): 74.4%
- Pregnant (%) (sows [2]; AI 24 h): 68.1%
- Pregnant (%) (sows [2]; AI 30 h): 62.3%
